Entries after “also recorded” stand apart in the source; their conditions may differ.
Key:
Type in all cases: cell-based, human
[1] = system: MECP2-mosaic (CTR/KO) neurospheres; experiment: Nuclei size in neurospheres; conditions: vs CTR/KO untreated
MECP2-KO neurons [2] = experiment: Multi-electrode array (MEA) of neurons
Protocol: (§1) Pharmacologic treatment. One-month old cortical organoids were treated for 1 mo with either Nefiracetam (10 μM) or PHA 543613 (10 μM) during media changes.
(§2) Multi-electrode array (MEA) analysis. MEA analyses of neurons and cortical organoids were performed as described in Nageshappa et al. (Mol. Psychiatry 21:178-188 (2016)). Briefly, 3D neurosphere cultures of NPC derivation were plated on dual-chamber MEA; spontaneous spike activity was evaluated with the MED64 System (Panasonic). Glutamatergic (AP5, NBQX), GABAergic (Gabazine), and gap channel (Mefloquine) antagonism were used to check neuronal activity. After measurement, neurons were immunostained to check morphology and density. Recorded spikes were analyzed with the software Neuroexplorer (Nex Technologies, Madison, Ala., USA). For cortical organoids, 1-month organoids were plated on MEA plates and recordings were collected with a Maestro MEA system and AxIS Software Spontaneous Neural Configuration (Axion Biosystems, Atlanta, Ga., USA) using a customized script. The plate rested in the machine for three minutes followed by four minutes of recording. Axion Biosystems' Neural Metrics Tool classified electrodes with at least 5 spikes/min as active. […] The synchrony index was calculated using a 20 ms cross-correlogram synchrony window was used to determine the synchrony index. […]

MECP2-KO neurons [3] = experiment: Neuronal morphology (neurites, spine density); conditions: vs KO untreated
Protocol: Spine density and morphology/stability/motility. pHIV7/Syn-EGFP lentivirus was prepared by transfecting HEK cells using the transfection agent polyethyleneimine (Polysciences, Inc., Warrington, Pa., USA), pSyn-EGFP and packaging plasmids pMDL, Rev RSV and VSVG. During cortical neuron differentiation, on day 40, control and MECP2dup neurons were transduced with pHIV7/syn-EGFP. Post transduction, neurons were further differentiated until day 70 and were fixed with 4% PFA and further processed for imaging. Confocal images were obtained using a confocal laser-scanning microscope (Nikon), 60× oil objective, with a sequential acquisition setting at 4096×4096 pixels resolution. Each image is a Z-series projection of ˜7 to 15 images, averaged 2 times and taken at 0.5 μm depth intervals. GFP-labeled differentiated neurons were chosen randomly for quantification. Quantitative analysis was performed in a blinded manner. Dendrites on primary branches were selected randomly and for each neuron two to three segments of 10 μm were analyzed. Morphometric measurements were performed manually using the ImageJ software (1.44p version). Each spine on the dendrites was manually traced. The length and head width of each spine was automatically measured and used to categorize the spines. Specifically, spines where defined as thin and filopodia (immature) or mushroom and stubby (mature) according to the criteria defined previously. Twenty-two (51 segments of 10 μm) and 18 (42 segments of 10 μm) neurons were analyzed for the control and MECP2dup neurons, respectively; two clones for each condition.
Analysis of neuronal morphology. PSC-derived neuronal morphometry was performed as described in Chailangkarn et al. Briefly, neurons with branching neurites featuring dendritic spine-like protrusions were selected, and neuronal morphology was quantified using Neurolucida v9 (MBF Bioscience, Williston, Vt.) via Nikon Eclipse E600 microscope (40× oil). Measurements were as follows: Spine number: number of spines protruding from neurites; soma size: soma area on cross-section; spine length: summed length of all spines per neuron. The rater traced the same neuron after a period of time to ensure intra-rater reliability.

[4] = system: MECP2-mosaic (CTR/KO) neurospheres; experiment: MEA analysis of neurospheres; conditions: 1 μM, after 5 weeks of treatment, vs CTR/KO untreated
Protocol: as §2, with “active. Bursts were identified using an inter-spike interval (ISI) threshold requiring a 5-spike minimum and 100 ms maximum ISI.” for “active.”

MECP2-KO neurons [5] = experiment: Co-localized pre/postsynaptic puncta quantification in neurons; conditions: one-month old MECP2-KO neurons treated two weeks
Protocol: as §1
Synaptic puncta quantification. Co-localized pre and postsynaptic puncta (Vglut and Homer1 immunostained) along MAP2-positive processes were quantified. Primary antibodies (see above) incubated 2 h, secondary antibodies incubated 1 h, and coverslips were mounted. Slides were analyzed under fluorescence microscopy.
Pharmacologic screening identifies two compounds that specifically reverse MECP2-KO phenotypes. 14 commercially available pharmacologic compounds with mechanisms of action that counteract the synapse and neurotransmitter pathologies were selected and which are identified in FIG. 5B. […] MECP2-KO and control neurons were treated with each of the 14 compounds and employed a tiered series of assays to identify those that could selectively rescue MECP2-KO pathology without affecting controls. […] The capacity of these compounds to increase pre and post co-localized synaptic puncta in MECP2-KO neurons were evaluated, again eliminating the drugs that affected control neurons (see FIG. 5F-G, and FIG. 6C-D).

SMILES | nuclei size in neurospheres [1] | MEA spike frequency / network spiking activity (MECP2-KO neurons [2]) | number of neurites (MECP2-KO neurons [3]) | total neurite length (MECP2-KO neurons [3]) | MEA overall spike count / spike frequency [4] | synaptogenesis / co-localized synaptic puncta (MECP2-KO neurons [5])
Cc1cccc(C)c1NC(=O)CN1CCCC1=O [Nefiracetam, nefiracetam] | did not rescue | increases network spiking activity; also recorded: restore | did not increase; also recorded: did not rescue | did not increase; also recorded: did not rescue | increased | specifically increased synaptogenesis
O=C(N[C@H]1CN2CCC1CC2)c1cc2ccoc2cn1 [PHA 543613, N-[(3R)-1-azabicyclo[2.2.2]oct-3-yl]furo[2,3-c]pyridine-5-carboxamide] | did not rescue | increases network spiking activity; also recorded: restore | did not increase; also recorded: did not rescue | did not increase; also recorded: did not rescue | increased | increases synaptic puncta

— patent US20230102192A1, “THERAPIES FOR THE TREATMENT OF DISEASES AND DISORDERS ASSOCIATED WITH ABNORMAL EXPRESSION OF A NEURAL-ASSOCIATED GENE” (The Regents of the University of California, priority 2020, published 2023)
